Measurements reported in patent publication US8541588B2, “Sulfonamide derivatives” (Pfizer Limited, priority 2009, dated 2013).

Molecular target: T1, Nav1.7 (or SCN9A) channel; HEK cells stably transfected with hSCN9A (Homo sapiens, UniProt Q15858)
T1 construct: expressed in transfected cells
Test: Nav1.7 block, PatchXpress 7000 automated whole-cell voltage clamp, estimated IC50 (EIC50)
Format: cell-based
Conditions: PatchXpress platform; hSCN9A HEK cells held at V1/2 of inactivation; estimated IC50

T1 sequence (Q15858 whole entry): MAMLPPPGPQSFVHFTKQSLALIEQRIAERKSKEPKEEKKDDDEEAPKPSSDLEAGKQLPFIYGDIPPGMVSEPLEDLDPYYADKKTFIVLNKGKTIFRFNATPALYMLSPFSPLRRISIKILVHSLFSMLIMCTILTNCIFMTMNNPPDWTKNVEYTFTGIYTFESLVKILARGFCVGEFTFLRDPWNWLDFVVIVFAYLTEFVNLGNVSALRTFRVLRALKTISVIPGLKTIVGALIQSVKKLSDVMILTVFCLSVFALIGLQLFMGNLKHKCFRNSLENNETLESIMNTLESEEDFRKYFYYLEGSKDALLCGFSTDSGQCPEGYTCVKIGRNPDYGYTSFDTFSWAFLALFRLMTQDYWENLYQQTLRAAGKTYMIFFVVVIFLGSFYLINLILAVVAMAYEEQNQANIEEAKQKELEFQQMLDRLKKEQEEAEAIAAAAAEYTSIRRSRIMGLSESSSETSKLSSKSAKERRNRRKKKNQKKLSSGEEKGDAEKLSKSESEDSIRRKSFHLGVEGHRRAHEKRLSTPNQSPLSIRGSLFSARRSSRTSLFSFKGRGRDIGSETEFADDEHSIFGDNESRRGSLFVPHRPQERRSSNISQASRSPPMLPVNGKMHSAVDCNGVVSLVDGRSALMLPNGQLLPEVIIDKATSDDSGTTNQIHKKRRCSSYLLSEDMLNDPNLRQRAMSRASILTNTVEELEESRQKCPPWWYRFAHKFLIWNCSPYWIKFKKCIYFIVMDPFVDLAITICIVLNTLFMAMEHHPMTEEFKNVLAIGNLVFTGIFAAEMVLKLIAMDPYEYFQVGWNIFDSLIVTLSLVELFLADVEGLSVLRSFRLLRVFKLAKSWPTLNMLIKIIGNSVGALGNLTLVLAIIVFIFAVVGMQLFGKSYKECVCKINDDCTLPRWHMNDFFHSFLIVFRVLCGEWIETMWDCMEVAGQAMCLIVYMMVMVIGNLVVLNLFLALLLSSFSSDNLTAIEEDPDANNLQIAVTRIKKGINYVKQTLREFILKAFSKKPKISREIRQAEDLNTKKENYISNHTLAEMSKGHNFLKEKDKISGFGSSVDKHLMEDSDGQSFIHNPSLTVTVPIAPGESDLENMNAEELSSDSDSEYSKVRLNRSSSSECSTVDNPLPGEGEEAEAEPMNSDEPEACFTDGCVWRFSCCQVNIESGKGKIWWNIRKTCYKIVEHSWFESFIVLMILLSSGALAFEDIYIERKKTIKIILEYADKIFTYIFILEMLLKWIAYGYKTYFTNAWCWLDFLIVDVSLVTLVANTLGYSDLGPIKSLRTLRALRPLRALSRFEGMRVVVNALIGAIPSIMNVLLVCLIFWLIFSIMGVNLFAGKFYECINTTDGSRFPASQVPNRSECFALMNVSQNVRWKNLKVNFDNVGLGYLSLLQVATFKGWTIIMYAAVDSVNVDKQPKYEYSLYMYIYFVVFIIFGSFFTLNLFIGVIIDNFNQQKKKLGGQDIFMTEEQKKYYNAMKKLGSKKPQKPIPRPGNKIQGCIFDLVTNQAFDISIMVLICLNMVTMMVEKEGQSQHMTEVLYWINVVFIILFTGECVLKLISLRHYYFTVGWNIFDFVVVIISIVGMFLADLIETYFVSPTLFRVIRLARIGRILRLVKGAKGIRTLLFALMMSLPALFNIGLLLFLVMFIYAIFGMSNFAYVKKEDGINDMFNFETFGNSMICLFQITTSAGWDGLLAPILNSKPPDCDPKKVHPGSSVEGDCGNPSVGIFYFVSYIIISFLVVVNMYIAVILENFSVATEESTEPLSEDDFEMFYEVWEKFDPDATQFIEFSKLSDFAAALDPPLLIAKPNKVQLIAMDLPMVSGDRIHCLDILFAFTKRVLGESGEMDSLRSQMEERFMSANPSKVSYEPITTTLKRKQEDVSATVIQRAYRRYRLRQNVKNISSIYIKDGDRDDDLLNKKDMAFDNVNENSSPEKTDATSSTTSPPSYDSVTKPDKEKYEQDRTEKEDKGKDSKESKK

Row | Compound | IC50 [µM]
1 | N#Cc1cc(S(=O)(=O)Nc2ccncn2)ccc1Oc1ccccc1-c1ccccc1 [Example 106, 4-(biphenyl-2-yloxy)-3-cyano-N-pyrimidin-4-ylbenzenesulfonamide] | 4.16
2 | N#Cc1cc(S(=O)(=O)Nc2cnoc2)ccc1Oc1ccccc1-c1ccccc1 [Example 108, 4-(biphenyl-2-yloxy)-3-cyano-N-isoxazol-4-ylbenzenesulfonamide] | >10
3 | N#Cc1cc(S(=O)(=O)Nc2ccon2)ccc1Oc1ccccc1-c1ccccc1 [Example 110, 4-(biphenyl-2-yloxy)-3-cyano-N-isoxazol-3-ylbenzenesulfonamide] | 4.27
4 | N#Cc1cc(S(=O)(=O)Nc2ccccc2C(F)(F)F)ccc1Oc1ccccc1-c1ccccc1 [Example 111, 4-(biphenyl-2-yloxy)-3-cyano-N-[2-(trifluoromethyl)phenyl]benzenesulfonamide] | >3
5 | Cc1snnc1NS(=O)(=O)c1ccc(Oc2ccccc2-c2ccccc2)c(C#N)c1 [Example 112, 4-(biphenyl-2-yloxy)-3-cyano-N-(5-methyl-1,2,3-thiadiazol-4-yl)benzenesulfonamide] | 33.7
6 | Cn1ccnc1NS(=O)(=O)c1ccc(Oc2ccccc2-c2ccccc2)c(C#N)c1 [Example 113, 4-(biphenyl-2-yloxy)-3-cyano-N-(1-methyl-1H-imidazol-2-yl)benzenesulfonamide] | 12.9
7 | N#Cc1cc(S(=O)(=O)Nc2ccccc2)ccc1Oc1ccccc1-c1ccccc1 [Example 114, 4-(biphenyl-2-yloxy)-3-cyano-N-phenylbenzenesulfonamide] | >10
8 | N#Cc1cc(S(=O)(=O)Nc2cc(C(F)(F)F)ncn2)ccc1Oc1ccccc1-c1ccccc1 [Example 115, 4-(biphenyl-2-yloxy)-3-cyano-N-[6-(trifluoromethyl)pyrimidin-4-yl]benzenesulfonamide] | >10
9 | N#Cc1cc(S(=O)(=O)Nc2ccnc(C(F)(F)F)n2)ccc1Oc1ccccc1-c1ccccc1 [Example 116, 4-(biphenyl-2-yloxy)-3-cyano-N-[2-(trifluoromethyl)pyrimidin-4-yl]benzenesulfonamide] | 3.11
10 | N#Cc1cc(S(=O)(=O)Nc2ncc[nH]2)ccc1Oc1ccccc1-c1ccccc1 [Example 117, 4-(biphenyl-2-yloxy)-3-cyano-N-1H-imidazol-2-ylbenzenesulfonamide] | 19.2
11 | Cc1nn(C)c(C)c1Cc1ccc(Oc2ccc(S(=O)(=O)Nc3nccs3)cc2F)cc1 [Example 118, 3-fluoro-N-1,3-thiazol-2-yl-4-{4-[(1,3,5-trimethyl-1H-pyrazol-4-yl)methyl]phenoxy}benzenesulfonamide] | 18.4
12 | O=S(=O)(Nc1nccs1)c1ccc(Oc2cccc(OCc3ccccc3)c2)c(F)c1 [Example 119, 4-[3-(benzyloxy)phenoxy]-3-fluoro-N-1,3-thiazol-2-ylbenzenesulfonamide] | 17.7
13 | O=S(=O)(Nc1nccs1)c1ccc(Oc2ccc(OCc3ccccc3)c(F)c2)c(F)c1 [Example 120, 4-[4-(benzyloxy)-3-fluorophenoxy]-3-fluoro-N-1,3-thiazol-2-ylbenzenesulfonamide] | 37.4
14 | O=S(=O)(Nc1nccs1)c1ccc(Oc2ccc(-c3cocn3)cc2)c(F)c1 [Example 121, 3-fluoro-4-[4-(1,3-oxazol-4-yl)phenoxy]-N-1,3-thiazol-2-ylbenzenesulfonamide] | 32.3
15 | Cc1noc(C)c1Cc1ccc(Oc2ccc(S(=O)(=O)Nc3nccs3)cc2F)cc1 [Example 122, 4-{4-[(3,5-dimethylisoxazol-4-yl)methyl]phenoxy}-3-fluoro-N-1,3-thiazol-2-ylbenzenesulfonamide] | 4.54
16 | Cc1cc(CN2CCCC2)cc(C)c1Oc1ccc(S(=O)(=O)Nc2nccs2)cc1F [Example 123, 4-[2,6-dimethyl-4-(pyrrolidin-1-ylmethyl)phenoxy]-3-fluoro-N-1,3-thiazol-2-ylbenzenesulfonamide] | 9.2
17 | O=S(=O)(Nc1nccs1)c1ccc(Oc2ccc(Oc3ccc(F)cc3)cc2)c(F)c1 [Example 124, 3-fluoro-4-[4-(4-fluorophenoxy)phenoxy]-N-1,3-thiazol-2-ylbenzenesulfonamide] | 15.1
18 | O=S(=O)(Nc1nccs1)c1ccc(Oc2ccc(CN3CCC3)c(F)c2)c(F)c1 [Example 125, 4-[4-(azetidin-1-ylmethyl)-3-fluorophenoxy]-3-fluoro-N-1,3-thiazol-2-ylbenzenesulfonamide] | 23
19 | O=S(=O)(Nc1nccs1)c1ccc(Oc2cccc(Oc3ccccc3)c2)c(F)c1 [Example 126, 3-fluoro-4-(3-phenoxyphenoxy)-N-1,3-thiazol-2-ylbenzenesulfonamide] | 11.5
20 | O=S(=O)(Nc1nccs1)c1ccc(Oc2ccc(Oc3ccccc3)cc2)c(F)c1 [Example 127, 3-fluoro-4-(4-phenoxyphenoxy)-N-1,3-thiazol-2-ylbenzenesulfonamide] | >10
21 | Cc1cc(-c2ccccc2Oc2ccc(S(=O)(=O)Nc3nccs3)cc2F)sn1 [Example 128, 3-fluoro-4-[2-(3-methylisothiazol-5-yl)phenoxy]-N-1,3-thiazol-2-ylbenzenesulfonamide] | 3.11
22 | Cc1cnsc1-c1ccccc1Oc1ccc(S(=O)(=O)Nc2nccs2)cc1F [Example 129, 3-fluoro-4-[2-(4-methylisothiazol-5-yl)phenoxy]-N-1,3-thiazol-2-ylbenzenesulfonamide] | 0.7
23 | Cc1nc(-c2ccccc2Oc2ccc(S(=O)(=O)Nc3nccs3)cc2F)cs1 [Example 130, 3-fluoro-4-[2-(2-methyl-1,3-thiazol-4-yl)phenoxy]-N-1,3-thiazol-2-ylbenzenesulfonamide] | 9.19
24 | O=S(=O)(Nc1nccs1)c1ccc(Oc2ccccc2-c2ccccn2)c(F)c1 [Example 131, 3-fluoro-4-(2-pyridin-2-ylphenoxy)-N-1,3-thiazol-2-ylbenzenesulfonamide] | 12.1
25 | CCc1nnc(C)n1-c1ccc(Oc2ccc(S(=O)(=O)Nc3nccs3)cc2F)cc1 [Example 132, 4-[4-(3-ethyl-5-methyl-4H-1,2,4-triazol-4-yl)phenoxy]-3-fluoro-N-1,3-thiazol-2-ylbenzenesulfonamide] | 17.3
26 | O=S(=O)(Nc1nccs1)c1ccc(Oc2ccccc2C2CCCCO2)c(F)c1 (stereo not drawn) [Example 133, 3-fluoro-4-[2-(tetrahydro-2H-pyran-2-yl)phenoxy]-N-1,3-thiazol-2-ylbenzenesulfonamide] | 11.6
27 | N#Cc1cc(S(=O)(=O)Nc2ncc(Cl)s2)ccc1Oc1ccccc1Oc1ccccc1 [Example 134, N-(5-chloro-1,3-thiazol-2-yl)-3-cyano-4-(2-phenoxyphenoxy)benzenesulfonamide] | 3.77
28 | N#Cc1cc(S(=O)(=O)Nc2ncc(Cl)s2)ccc1Oc1ccccc1Oc1ccncc1 [Example 135, N-(5-chloro-1,3-thiazol-2-yl)-3-cyano-4-[2-(pyridin-4-yloxy)phenoxy]benzenesulfonamide] | 0.73
29 | N#Cc1cc(S(=O)(=O)Nc2ncc(Cl)s2)ccc1Oc1ccccc1OCc1ccccc1 [Example 136, 4-[2-(benzyloxy)phenoxy]-N-(5-chloro-1,3-thiazol-2-yl)-3-cyanobenzenesulfonamide] | 2.7
30 | Cn1cc(-c2ccc(Cl)cc2)c(Oc2ccc(S(=O)(=O)Nc3ncc(Cl)s3)cc2C#N)n1 [Example 137, 4-{[4-(4-chlorophenyl)-1-methyl-1H-pyrazol-3-yl]oxy}-N-(5-chloro-1,3-thiazol-2-yl)-3-cyanobenzenesulfonamide] | 2.59
